Assay results: patent US20260166159A1, “KRAS G12D DEGRADATION AGENT, AND PREPARATION METHOD AND USE THEREFOR” (LEADINGTAC PHARMACEUTICAL (SHAOXING) CO., LTD., priority 2022, published 2026)
pIC50: −log10 of the molar value.

Assays:
Assay type in all cases: cell-based
[1] = tested on: KRAS G12D mutant human gastric cancer cell AGS; assay: 3D cell proliferation inhibition assay, AGS; details: 168 h, 7 days, CTG
Excerpt: (§1) The inhibitory effects of the compounds on 3D cell proliferation were investigated on KRAS G12D mutant human lung cancer cell A427, KRAS G12D mutant human gastric cancer cell AGS, KRAS G12D mutant human metastatic pancreatic cancer cell AsPc-1, KRAS G12D mutant human pancreatic cancer cell Panc 04.03, KRAS G12D mutant human pancreatic cancer cell HPAC, KRAS G12V mutant human lung squamous cell carcinoma cell SW900, and KRAS WT human gastric cancer cell MKN1. The specific procedures were as follows:
(§2) 10 μL of each compound solution diluted in a gradient was added to corresponding wells of a 96-well low-adsorption microplate (PerkinElmer), so that the final concentrations of the test compounds in the reaction system were in a range of 10000-0.026 nM. The final concentration of DMSO was 0.2%. Then 90 µL of cells were correspondingly seeded into each well to achieve a cell density of 5×10^2 cells/well (the cell density of SW900 was 5×10^1 cells/well, and the cell density of MKN1 was 1×10^3 cells/well). In addition to test wells for the test compounds, both a DMSO control well and a medium control well were set, with the DMSO control well containing DMSO and cells and the medium well containing only a medium. After the sample loading, the 96-well low-adsorption microplate was incubated in an incubator at 37° C. with 5% carbon dioxide for 7 days. After 7 days, the microplate was taken out, and 100 μL of CTG reagent (Promega) was added to each well. The plate was incubated at room temperature for 60 min and read on a microplate reader EnVision by the chemiluminescence program. The inhibition rates of the compounds at each concentration were calculated using the formula for the percentage inhibition of cell proliferation: inhibition rate %=(mean value of DMSO control group−single concentration reading value of compound)/(mean value of DMSO control group−mean value of medium control group)×100. Then non-linear curve fittings for logarithmic concentration-inhibition rate were performed by GraphPad Prism 8, and the IC50 values of the compounds were obtained (Table 5).

[2] = tested on: KRAS G12D mutant human lung cancer cell A427; assay: 3D cell proliferation inhibition assay, A427; details: A-427, 168 h, A427, 7 days, CTG
Excerpt: as §1, §2

KRAS-G12D [3] = biological target: T1, KRAS-G12D (Homo sapiens, UniProt P01116, G12D); assay: KRAS-G12D degradation assay (Western Blot), A-427 cells; details: A427 cells, 24 h; for Dmax: A-427
T1 construct: endogenous in cells; host or cells: A-427 (ATCC), AGS, AsPc-1, Panc 04.03
T1 sequence (P01116 1-188 isoform P01116-2 G12D): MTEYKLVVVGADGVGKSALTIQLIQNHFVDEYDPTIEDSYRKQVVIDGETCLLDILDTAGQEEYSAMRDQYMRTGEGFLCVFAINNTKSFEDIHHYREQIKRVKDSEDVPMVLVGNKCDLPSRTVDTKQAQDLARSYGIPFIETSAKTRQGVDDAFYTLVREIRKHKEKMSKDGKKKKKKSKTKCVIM
Procedure: (§3) The degradation effects of the compounds on KRAS-G12D were investigated on KRAS G12D mutant human lung cancer cell A-427 (ATCC), KRAS G12D mutant human gastric cancer cell AGS, KRAS G12D mutant human metastatic pancreatic cancer cell AsPc-1, and KRAS G12D mutant human pancreatic adenocarcinoma cell Panc 04.03. The specific procedures were as follows: 0.95 mL of cells were seeded into each well of a 24-well cell culture plate to achieve a cell density of 5×10^5 cells/well; and the cell plate was incubated in an incubator at 37° C. with 5% CO2 overnight. Then 50 μL of the compound solution after dilution was added to each of the wells with the corresponding cells, so that the final concentration of the compound was in a range of 0.03-3000 nM. The final concentration of DMSO was 0.25%. After the compounds were added, the cell plate was incubated in the incubator at 37° C. with 5% CO2 for 24 h. The culture medium in the 24-well cell culture plate was removed, and the plate was washed twice with 1×PBS (KeyGEN). 120 μL of RIPA (strong) lysis buffer (Beyotime) supplemented with 1 mM phenylmethylsulfonyl fluoride, a protease inhibitor mixture (Beyotime), and a protease phosphatase inhibitor mixture (Beyotime) was added to lyse adherent A-427 cells at the bottom of the cell culture plate. After the plate was left to stand on ice for 30 min, the protein lysate in each well was transferred to a 1.5 mL centrifuge tube and centrifuged at 15000 g for 20 min at 4° C. The cell lysate supernatants after centrifugation were cryopreserved in a refrigerator at −80° C. for later use.
(§4) After the samples of the cell lysate supernatants that had been prepared were thawed from the refrigerator at −80° C., the total protein concentrations of the cell lysates were determined using a BCA protein quantification kit (Tiangen). The total protein concentrations of the samples were then adjusted to 0.5 μg/μL with PBS and 5×SDS-PAGE protein loading buffer (Beyotime), and the samples were incubated in a water bath at 100° C. for 15 min. The samples were then incubated in an ice bath for 5 min and centrifuged at 14000 g for 1 min at 4° C., and the supernatants were mixed well as loading samples for the Western Blot assay. The samples were loaded into wells of a 10% precast gel (KeyGEN) with a loading volume of 10 μL (total protein: 5 μg), a sufficient Tris-MOPS-SDS running buffer (Adamas) was added, and then electrophoresis was performed at a constant voltage of 120 V for 55 min. After the electrophoresis, the proteins on the gel were transferred to PVDF membranes at a constant current of 250 mA for 55 min. After the membrane transfer, the PVDF membranes were incubated in 1× Quick Block blocking buffer (Beyotime) at room temperature for 30 min. After the blocking, the PVDF membranes were separately incubated at 4° C. overnight with the KRAS antibody (Abcam) diluted in a ratio of 1:1000 and the […] antibody (Abcam) diluted in a ratio of 1:2000 in 5% BSA as the diluent, and then washed with 1×TBST buffer (2.4 g of Tris, 8.8 g of NaCl, 1.5 mL of Tween 20, with pH adjusted to 7.4, with the volume brought to 1 L) 3 times for 10 min/time. The membranes were incubated with a secondary antibody (Abcam) diluted in 5% BSA at room temperature for 2 h, and then washed with 1×TBST buffer 3 times for 10 min/time. Finally, the membranes were incubated with Clarity Western ECL Substrate (BIO-RAD) for 5 min for luminescence and color development, and a ChemiScope 6200 Touch chemiluminescence imaging system (Clinx) was used for color development and protein mapping. Gray value analysis of the protein maps was performed using the chemiluminescence analysis software (Clinx). The gray correction value for each sample was calculated using the formula: gray correction value=(gray value of target protein/gray value of corresponding internal reference)×10^3. Then degradation rates were calculated by comparison with the gray correction value of the control group. […]

KRAS-G12D [4] = biological target: T1, KRAS-G12D; assay: KRAS-G12D degradation assay (Western Blot), AsPc-1 cells; details: for DC50: 24 h; for Dmax: ASPC1, 24 h
Procedure: as §3, §4

CCc1c(F)ccc2cc(O)cc(-c3ncc4c(N5CC6CCC(C5)N6)nc(OCC5(CN6CCN(CC7CCC8(CC7)CCN(C(=O)c7ccc(C)c(N9CCC(=O)NC9=O)c7)CC8)CC6)CC5)nc4c3F)c12 [Example 37, 1-(5-(9-((4-((1-(((4-(3,8-diazabicyclo[3.2.1]octan-3-yl)-7-(8-ethyl-7-fluoro-3-hydroxynaphthalen-1-yl)-8-fluoropyrido[4,3-d]pyrimidin-2-yl)oxy)methyl)cyclopropyl)methyl)piperazin-1-yl)methyl)-3-azaspiro[5.5]undecane-3-carbonyl)-2-methylphenyl)dihydropyrimidine-2,4(1H,3H)-dione]
pIC50 ([1]; class symbols): ≥ 7.30
pIC50 ([2]; class symbols): 6.30 to 7.00
DC50 (KRAS-G12D [3]; class symbols): ≤ 50 nM
Dmax (KRAS-G12D [3]; class symbols): 80 to 100%

C#Cc1c(F)ccc2cc(O)cc(-c3ncc4c(N5CC6CCC(C5)N6)nc(OCC5(CN6CCN(CC7CCC8(CC7)CCN(C(=O)c7ccc(OC(F)(F)F)c(N9CCC(=O)NC9=O)c7)CC8)CC6)CC5)nc4c3F)c12 [Example 39, 1-(5-(9-((4-((1-(((4-(3,8-diazabicyclo[3.2.1]octan-3-yl)-7-(8-ethynyl-7-fluoro-3-hydroxynaphthalen-1-yl)-8-fluoropyrido[4,3-d]pyrimidin-2-yl)oxy)methyl)cyclopropyl)methyl)piperazin-1-yl)methyl)-3-azaspiro[5.5]undecane-3-carbonyl)-2-(trifluoromethoxy)phenyl)dihydropyrimidine-2,4(1H,3H)-dione]
pIC50 ([1]; class symbols): ≥ 7.30
pIC50 ([2]; class symbols): 6.30 to 7.00
DC50 (KRAS-G12D [3]; class symbols): ≤ 50 nM
Dmax (KRAS-G12D [3]; class symbols): 50 to 80%

C#Cc1c(F)ccc2cc(O)cc(-c3ncc4c(N5CC6CCC(C5)N6)nc(SCC5(CN6CCN(CC7CCC8(CC7)CCN(C(=O)c7ccc(OC)c(N9CCC(=O)NC9=O)c7)CC8)CC6)CC5)nc4c3F)c12 [Example 54, 1-(5-(9-((4-((1-(((4-(3,8-diazabicyclo[3.2.1]octan-3-yl)-7-(8-ethynyl-7-fluoro-3-hydroxynaphthalen-1-yl)-8-fluoropyrido[4,3-d]pyrimidin-2-yl)thio)methyl)cyclopropyl)methyl)piperazin-1-yl)methyl)-3-azaspiro[5.5]undecane-3-carbonyl)-2-methoxyphenyl)dihydropyrimidine-2,4(1H,3H)-dione]
pIC50 ([1]; class symbols): ≥ 7.30
pIC50 ([2]; class symbols): ≥ 7.30

C#Cc1c(F)ccc2cc(O)cc(-c3ncc4c(N5CC6CCC(C5)N6)nc(OCCN5CCN(CC6CCC7(CC6)CCN(C(=O)c6ccc(Cl)c(N8CCC(=O)NC8=O)c6)CC7)CC5)nc4c3F)c12 [Example 60, 1-(5-(9-((4-(2-((4-(3,8-diazabicyclo[3.2.1]octan-3-yl)-7-(8-ethynyl-7-fluoro-3-hydroxynaphthalen-1-yl)-8-fluoropyrido[4,3-d]pyrimidin-2-yl)oxy)ethyl)piperazin-1-yl)methyl)-3-azaspiro[5.5]undecane-3-carbonyl)-2-chlorophenyl)dihydropyrimidine-2,4(1H,3H)-dione]
pIC50 ([1]; class symbols): ≥ 7.30
pIC50 ([2]; class symbols): 6.30 to 7.00

C#Cc1c(F)ccc2cc(O)cc(-c3ncc4c(N5CC6CCC(C5)N6)nc(OCC5(CN6CCC(CCOCC7(OC)CCN(C(=O)c8ccc(Cl)c(N9CCC(=O)NC9=O)c8)CC7)CC6)CC5)nc4c3F)c12 [Example 67, 1-(5-(4-((2-(1-((1-(((4-(3,8-diazabicyclo[3.2.1]octan-3-yl)-7-(8-ethynyl-7-fluoro-3-hydroxynaphthalen-1-yl)-8-fluoropyrido[4,3-d]pyrimidin-2-yl)oxy)methyl)cyclopropyl)methyl)piperidin-4-yl)ethoxy)methyl)-4-methoxypiperidine-1-carbonyl)-2-chlorophenyl)dihydropyrimidine-2,4(1H,3H)-dione]
pIC50 ([1]; numeric values): 7.47
pIC50 ([2]; numeric values): 7.44

C#Cc1c(F)ccc2cc(O)cc(-c3ccc4c(N5CC6CCC(C5)N6)nc(OCC5(CN6CCN(CC7CCC8(CC7)CCN(C(=O)c7ccc(Cl)c(N9CCC(=O)NC9=O)c7)CC8)CC6)CC5)nc4c3F)c12 [Example 72, 1-(5-(9-((4-((1-(((4-(3,8-diazabicyclo[3.2.1]octan-3-yl)-7-(8-ethynyl-7-fluoro-3-hydroxynaphthalen-1-yl)-8-fluoroquinazolin-2-yl)oxy)methyl)cyclopropyl)methyl)piperazin-1-yl)methyl)-3-azaspiro[5.5]undecane-3-carbonyl)-2-chlorophenyl)dihydropyrimidine-2,4(1H,3H)-dione]
pIC50 ([1]; numeric values): 8.06
DC50 (KRAS-G12D [3]; numeric values): 101 nM
Dmax (KRAS-G12D [3]; numeric values): 82.6%

C#Cc1c(F)ccc2cc(O)cc(-c3ncc4c(N5CC6CCC(C5)N6)nc(OC[C@@H](CN5CCN(CC6CCC7(CC6)CCN(C(=O)c6ccc(C)c(N8CCC(=O)NC8=O)c6)CC7)CC5)OC)nc4c3F)c12 [Example 172, 1-(5-(9-((4-((R)-3-((4-(3,8-diazabicyclo[3.2.1]octan-3-yl)-7-(8-ethynyl-7-fluoro-3-hydroxynaphthalen-1-yl)-8-fluoropyrido[4,3-d]pyrimidin-2-yl)oxy)-2-methoxypropyl)piperazin-1-yl)methyl)-3-azaspiro[5.5]undecane-3-carbonyl)-2-methylphenyl)dihydropyrimidine-2,4(1H,3H)-dione]
DC50 (KRAS-G12D [4]): 113 nM
Dmax (KRAS-G12D [4]): 55%

C#Cc1c(F)ccc2cc(O)cc(-c3ncc4c(N5CC6CCC(C5)N6)nc(OC[C@H](O)CN5CCN(CC6CCC7(CC6)CCN(C(=O)c6ccc(OC)c(N8CCC(=O)NC8=O)c6)CC7)CC5)nc4c3F)c12 [Example 191, 1-(5-(9-((4-((R)-3-((4-(3,8-diazabicyclo[3.2.1]octan-3-yl)-7-(8-ethynyl-7-fluoro-3-hydroxynaphthalen-1-yl)-8-fluoropyrido[4,3-d]pyrimidin-2-yl)oxy)-2-hydroxypropyl)piperazin-1-yl)methyl)-3-azaspiro[5.5]undecane-3-carbonyl)-2-methoxyphenyl)dihydropyrimidine-2,4(1H,3H)-dione]
DC50 (KRAS-G12D [4]): 149 nM
Dmax (KRAS-G12D [4]): 81.9%
